Consider 19 molecules from patent publication US20240270698A2, “NOVEL PYRIMIDINE DERIVATIVE AND USE THEREOF” (KOREA RESEARCH INSTITUTE OF CHEMICAL TECHNOLOGY, priority 2019, published 2024).

The test system of one series is HepG2 cancer cells. Put plainly: Anticancer activity, cell viability by CCK-8, HepG2. It counts as cell-based. The note with it: HepG2, 10 μM, 72 hours. As for the experimental part: (§1) Compounds 1 to 119 synthesized in Example 1 according to the present disclosure were assayed for inhibitory activity against MLK3/LRRK2 enzymes and anticancer activity against HepG2/H[…] cancer cells, and the results are summarized in Table 1, below. Assay for anticancer activity was conducted as follows. HepG2 and H[…] cancer cells were purchased from the Korean Cell Line Bank and cultured according to the instruction provided thereby. One hundred μL of a culture of the cells were seeded at a density of 4,000 cells/well into 96-well plates. After 24 hours, the cells were treated with the compounds for 72 hours. Then, cell viability was assayed using CCK-8 and expressed as % of the control.

The next series concerns HS746T cancer cells. Put plainly: Anticancer activity, cell viability by CCK-8, HS746T. The note with it: 72 hours. The series is classed as cell-based. As for the experimental part:
as §1

The target in series [1] is T1, human recombinant MLK3 protein (Homo sapiens, UniProt Q16584).
T1 construct: purchased Eurofins
Briefly: MLK3 kinase activity assay (Eurofins, gamma-33P-ATP, filtermat scintillation counting). It counts as biochemical. The settings on record: human recombinant MLK3, 120 minutes at room temperature. On the procedure: (§2) Compounds 1 to 119 synthesized in Example 1 according to the present disclosure were assayed for inhibitory activity against MLK3/LRRK2 enzymes and anticancer activity against HepG2/HS746T cancer cells, and the results are summarized in Table 1, below.
(§3) Inhibitory activity against MLK3 and LRRK2 enzymes was evaluated in Eurofins. In brief, human recombinant MLK3 protein was mixed with the compounds in a reaction buffer (8 mM MOPS (pH 7.0), 0.2 mM EDTA, 0.33 mg/mL myelin basic protein, 5 mM DTT) to which a mixture of 10 mM magnesium acetate and gamma-33P-ATP was then added before incubation at room temperature for 120 minutes. Afterward, the reaction was terminated with 0.5% phosphoric acid. Ten μL of the total mixture was spotted onto a P30 filtermat which was then washed four times for 4 minutes with 0.425% phosphoric acid and once in methanol prior to scintillation counting. Values for the activity of MLK3 were expressed as % of the control. For the activity of LRRK2, human recombinant LRRK2 protein was mixed with the compounds in a reaction buffer (50 mM HEPES (pH 8.0), 0.2 mM EDTA, 0.01% Brij-35, 1% (w/v) BSA, 5 mM DTT, 250 uM substrate peptide RLGRDKYKTLRQIRQ) and then reacted with a mixture of 10 mM magnesium acetate and gamma-33P-ATP at room temperature for 40 minutes. Afterward, the reaction was terminated with 0.5% phosphoric acid. Ten μL of the total mixture was spotted onto a P30 filtermat which was then washed four times for 4 minutes with 0.425% phosphoric acid and once in methanol prior to scintillation counting. Values for the activity of LRRK2 were expressed as % of the control.

Series [2] has as its target T2, human recombinant LRRK2 protein (Homo sapiens, UniProt Q5S007).
T2 construct: purchased Eurofins
Put plainly: LRRK2 kinase activity assay (Eurofins, gamma-33P-ATP, filtermat scintillation counting). It counts as biochemical. The note with it: human recombinant LRRK2, 40 minutes at room temperature. As for the experimental part: as §2, §3

Bounds are passed on as bounds.

As a reminder, the IC50 is the concentration that gives 50% inhibition.

T2 sequence (Q5S007 whole entry): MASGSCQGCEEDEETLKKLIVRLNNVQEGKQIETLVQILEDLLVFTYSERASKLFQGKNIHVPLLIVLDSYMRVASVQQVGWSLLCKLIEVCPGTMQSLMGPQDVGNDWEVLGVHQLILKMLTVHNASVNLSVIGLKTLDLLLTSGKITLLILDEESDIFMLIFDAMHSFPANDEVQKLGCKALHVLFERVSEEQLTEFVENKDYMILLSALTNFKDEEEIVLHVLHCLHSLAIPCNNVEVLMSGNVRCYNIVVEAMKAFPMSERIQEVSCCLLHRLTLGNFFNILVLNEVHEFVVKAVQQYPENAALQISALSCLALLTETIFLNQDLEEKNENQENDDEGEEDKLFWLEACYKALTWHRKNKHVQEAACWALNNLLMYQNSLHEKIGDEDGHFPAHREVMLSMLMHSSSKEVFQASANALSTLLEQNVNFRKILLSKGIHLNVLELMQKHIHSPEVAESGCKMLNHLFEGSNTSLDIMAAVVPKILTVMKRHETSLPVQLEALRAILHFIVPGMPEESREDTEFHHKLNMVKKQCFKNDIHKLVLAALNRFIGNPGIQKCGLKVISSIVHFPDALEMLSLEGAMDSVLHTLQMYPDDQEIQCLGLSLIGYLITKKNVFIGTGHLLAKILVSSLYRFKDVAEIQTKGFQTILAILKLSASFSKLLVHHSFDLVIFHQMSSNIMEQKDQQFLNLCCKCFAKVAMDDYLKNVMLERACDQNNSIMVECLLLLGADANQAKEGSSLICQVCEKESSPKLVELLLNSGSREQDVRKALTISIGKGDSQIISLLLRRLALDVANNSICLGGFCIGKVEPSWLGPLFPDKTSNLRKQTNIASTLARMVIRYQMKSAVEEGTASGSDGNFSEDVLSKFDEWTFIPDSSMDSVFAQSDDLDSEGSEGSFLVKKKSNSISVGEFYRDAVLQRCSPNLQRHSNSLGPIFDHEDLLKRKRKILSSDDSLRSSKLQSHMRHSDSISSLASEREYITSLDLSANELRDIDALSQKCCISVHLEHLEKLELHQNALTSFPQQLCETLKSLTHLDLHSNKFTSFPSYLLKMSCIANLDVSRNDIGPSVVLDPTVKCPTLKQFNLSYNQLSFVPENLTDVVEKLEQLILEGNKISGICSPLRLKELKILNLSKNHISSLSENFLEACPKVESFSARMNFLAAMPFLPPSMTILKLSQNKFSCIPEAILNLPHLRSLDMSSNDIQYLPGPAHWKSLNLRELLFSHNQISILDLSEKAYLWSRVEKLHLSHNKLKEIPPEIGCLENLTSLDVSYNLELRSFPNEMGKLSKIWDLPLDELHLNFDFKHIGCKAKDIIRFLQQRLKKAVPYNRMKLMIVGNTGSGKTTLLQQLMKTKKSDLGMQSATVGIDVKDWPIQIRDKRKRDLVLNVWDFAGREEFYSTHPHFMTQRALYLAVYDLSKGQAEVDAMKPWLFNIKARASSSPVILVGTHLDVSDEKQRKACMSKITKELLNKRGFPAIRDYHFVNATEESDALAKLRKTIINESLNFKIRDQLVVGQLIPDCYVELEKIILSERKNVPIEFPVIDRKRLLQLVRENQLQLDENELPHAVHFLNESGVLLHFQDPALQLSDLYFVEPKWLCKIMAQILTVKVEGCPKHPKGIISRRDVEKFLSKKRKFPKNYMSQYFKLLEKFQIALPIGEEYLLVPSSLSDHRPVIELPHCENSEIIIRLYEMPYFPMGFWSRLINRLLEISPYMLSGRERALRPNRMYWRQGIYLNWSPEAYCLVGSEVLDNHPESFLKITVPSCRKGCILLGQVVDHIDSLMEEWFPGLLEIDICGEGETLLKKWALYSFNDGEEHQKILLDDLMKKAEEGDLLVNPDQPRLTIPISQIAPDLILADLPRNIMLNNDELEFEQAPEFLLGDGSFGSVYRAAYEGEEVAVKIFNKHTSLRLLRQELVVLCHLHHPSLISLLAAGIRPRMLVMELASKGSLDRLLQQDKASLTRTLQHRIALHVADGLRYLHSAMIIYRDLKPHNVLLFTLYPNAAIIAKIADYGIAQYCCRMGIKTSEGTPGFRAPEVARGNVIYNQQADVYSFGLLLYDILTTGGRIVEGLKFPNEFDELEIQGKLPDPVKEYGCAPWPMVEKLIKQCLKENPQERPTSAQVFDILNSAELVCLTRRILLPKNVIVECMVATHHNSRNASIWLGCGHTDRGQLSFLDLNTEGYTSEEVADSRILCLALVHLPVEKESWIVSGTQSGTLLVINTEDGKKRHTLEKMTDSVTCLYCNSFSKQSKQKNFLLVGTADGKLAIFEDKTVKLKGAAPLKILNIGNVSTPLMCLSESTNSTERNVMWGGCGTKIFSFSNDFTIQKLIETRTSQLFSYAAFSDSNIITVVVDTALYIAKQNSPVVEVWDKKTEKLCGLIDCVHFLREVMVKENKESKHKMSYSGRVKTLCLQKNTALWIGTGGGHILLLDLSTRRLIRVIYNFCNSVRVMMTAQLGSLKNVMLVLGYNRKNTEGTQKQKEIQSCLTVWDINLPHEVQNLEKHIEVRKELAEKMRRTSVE
T1 sequence (Q16584 whole entry): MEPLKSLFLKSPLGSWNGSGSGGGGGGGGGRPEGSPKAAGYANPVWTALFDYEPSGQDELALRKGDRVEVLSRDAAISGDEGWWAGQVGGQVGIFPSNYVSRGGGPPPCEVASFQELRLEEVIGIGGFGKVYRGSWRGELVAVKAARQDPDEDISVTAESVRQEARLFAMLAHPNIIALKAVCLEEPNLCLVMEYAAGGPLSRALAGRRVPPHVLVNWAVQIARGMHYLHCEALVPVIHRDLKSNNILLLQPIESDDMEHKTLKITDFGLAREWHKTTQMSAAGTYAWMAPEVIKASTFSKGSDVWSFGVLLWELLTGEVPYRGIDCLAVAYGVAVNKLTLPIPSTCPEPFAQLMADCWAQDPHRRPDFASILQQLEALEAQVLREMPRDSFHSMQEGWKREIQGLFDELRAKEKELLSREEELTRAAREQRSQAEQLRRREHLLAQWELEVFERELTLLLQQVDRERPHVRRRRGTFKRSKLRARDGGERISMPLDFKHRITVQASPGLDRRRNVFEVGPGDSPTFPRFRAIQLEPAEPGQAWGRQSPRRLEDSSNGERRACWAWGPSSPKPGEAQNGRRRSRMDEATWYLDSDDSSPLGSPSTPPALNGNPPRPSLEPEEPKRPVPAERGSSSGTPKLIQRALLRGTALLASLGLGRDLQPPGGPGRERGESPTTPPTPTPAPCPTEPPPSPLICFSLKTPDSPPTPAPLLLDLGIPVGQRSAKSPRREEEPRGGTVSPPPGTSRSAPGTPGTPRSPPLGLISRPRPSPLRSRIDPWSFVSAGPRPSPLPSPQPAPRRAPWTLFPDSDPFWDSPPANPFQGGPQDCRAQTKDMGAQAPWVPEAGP

On to `CP(C)(=O)c1ccccc1Nc1nc(Nc2ccc3cn[nH]c3c2)ncc1Cl` [compound 64, (2-((2-((1H-Indazol-6-yl)amino)-5-chloropyrimidin-4-yl)amino)phenyl)dimethylphosphine oxide], for which, in the series with HepG2 cancer cells, the “Cell viability (% of Con. 10 μM) HepG2” value is 23 % of Con. Besides, the “Cell viability (% of Con. 10 μM) HS746T” value with HS746T cancer cells is 29 % of Con. In addition, the IC50 in series [1] and in series [2] was 0.001 to 0.01 µM throughout.

As for `COc1ccc(-c2n[nH]c3ccc(Nc4ncc(Cl)c(Nc5ccccc5P(C)(C)=O)n4)cc23)cc1F` [compound 109], the “Cell viability (% of Con. 10 μM) HepG2” value in the series on HepG2 cancer cells is reported as 53 % of Con. The “Cell viability (% of Con. 10 μM) HS746T” value in the series with HS746T cancer cells is given as 25 % of Con. Moreover, the values for the IC50 in series [1] and in series [2] were 0.001 to 0.01 µM and 0.01 to 0.1 µM, respectively.

On to `CC(C)Oc1cc(F)cc(-c2n[nH]c3ccc(Nc4ncc(Cl)c(Nc5ccccc5P(C)(C)=O)n4)cc23)c1` [compound 115, (2-((5-Chloro-2-((3-(3-fluoro-5-isopropoxyphenyl)-1H-indazol-5-yl)amino)pyrimidin-4-yl)amino)phenyl)dimethylphosphine oxide], for which the “Cell viability (% of Con. 10 μM) HepG2” value with HepG2 cancer cells is given as 50 % of Con. Also, the “Cell viability (% of Con. 10 μM) HS746T” value with HS746T cancer cells is recorded as 10 % of Con. Besides, the IC50 in series [1] and in series [2] was 0.001 to 0.01 µM each time.

Turning to `CC1(C)NCCc2ccc(Nc3ncc(Cl)c(Nc4ccccc4P(C)(C)=O)n3)cc21` [compound 44, (2-((5-Chloro-2-((1,1-dimethyl-1,2,3,4-tetrahydroisoquinolin-7-yl)amino)pyrimidin-4-yl)amino)phenyl)dimethylphosphine oxide], the “Cell viability (% of Con. 10 μM) HepG2” value in the series with HepG2 cancer cells was 53 % of Con. Moreover, the “Cell viability (% of Con. 10 μM) HS746T” value with HS746T cancer cells is 17 % of Con. For the same molecule, the IC50 in series [1] and in series [2] was 0.001 to 0.01 µM in each case.

As for `CC(C)C1c2cc(Nc3ncc(Cl)c(Nc4ccccc4P(C)(C)=O)n3)ccc2CCN1C(=O)C(F)(F)F` (stereo not shown) [compound 53, 1-(7-((5-Chloro-4-((2-(dimethylphosphoryl)phenyl)amino)pyrimidin-2-yl)amino)-1-isopropyl-3,4-dihydroisoquinolin-2(1H)-yl)-2,2,2-trifluoroethan-1-one], the “Cell viability (% of Con. 10 μM) HepG2” value in the series with HepG2 cancer cells is listed as 23 % of Con. In addition, the “Cell viability (% of Con. 10 μM) HS746T” value in the series on HS746T cancer cells is given as 14 % of Con. The IC50 in series [1] and in series [2] was 0.001 to 0.01 µM in each case.

Regarding `CP(C)(=O)c1ccccc1Nc1nc(NCc2ccc(F)cc2)ncc1Cl` [compound 12, (2-((5-Chloro-2-((4-fluorobenzyl)amino)pyrimidin-4-yl)amino)phenyl)dimethylphosphine oxide], the “Cell viability (% of Con. 10 μM) HepG2” value with HepG2 cancer cells is recorded as 85 % of Con. Besides, in the series with HS746T cancer cells, the “Cell viability (% of Con. 10 μM) HS746T” value is 97 % of Con. The IC50 in series [1] and in series [2] was greater than 1 µM in each case.

With `CC(C)S(=O)(=O)c1ccccc1Nc1nc(Nc2cc(F)cc(F)c2)ncc1Cl` [compound 6, 5-Chloro-N^2-(3,5-difluorophenyl)-N^4-(2-(isopropylsulfonyl)phenyl) pyrimidine-2,4-diamine], the IC50 in series [1] and in series [2] was 0.1 to 1 µM in each case.

On to `CP(C)(=O)c1ccccc1Nc1nc(Nc2cnc3[nH]ccc3c2)ncc1Cl` [compound 79, (2-((2-((1H-Pyrrolo[2,3-b]pyridin-5-yl)amino)-5-chloropyrimidin-4-yl)amino)phenyl)dimethylphosphine oxide], for which the “Cell viability (% of Con. 10 μM) HS746T” value in the series with HS746T cancer cells is given as 19 % of Con. Further, the figures for the IC50 in series [1] and in series [2] were 0.01 to 0.1 µM and 0.001 to 0.01 µM, respectively.

As for `Cc1cc(C)cc(Nc2ncc(Cl)c(Nc3ccccc3S(=O)(=O)C(C)C)n2)c1` [compound 3, 5-Chloro-N^2-(3,5-dimethylphenyl)-N^4-(2-(isopropylsulfonyl)phenyl) pyrimidine-2,4-diamine], the IC50 in series [1] and in series [2] was 0.1 to 1 µM each time.

As for `CP(C)(=O)c1ccccc1Nc1nc(Nc2ccc3[nH]nc(C4=CCNCC4)c3c2)ncc1Cl` [compound 91], the “Cell viability (% of Con. 10 μM) HS746T” value in the series with HS746T cancer cells was 5.8 % of Con. In addition, the half-inhibitory concentration (IC50) in series [1] and in series [2] was 0.001 to 0.01 µM each time.

For `CP(C)(=O)c1ccccc1Nc1nc(Nc2ccc3[nH]nc(-c4ccc(C=O)o4)c3c2)ncc1Cl` [compound 92, 5-(5-((5-Chloro-4-((2-(dimethylphosphoryl)phenyl)amino)pyrimidin-2-yl)amino)-1H-indazol-3-yl)furan-2-carbaldehyde], the “Cell viability (% of Con. 10 μM) HS746T” value in the series on HS746T cancer cells is on record as 14.1 % of Con. The IC50 in series [1] and in series [2] was 0.001 to 0.01 µM in each case.

With `CC(C)(C)OC(=O)N1CC=C(c2n[nH]c3ccc(Nc4ncc(Cl)c(Nc5ccccc5P(C)(C)=O)n4)cc23)CC1` [compound 85, Tert-butyl 4-(5-((5-chloro-4-((2-(dimethylphosphoryl)phenyl)amino)pyrimidin-2-yl)amino)-1H-indazol-3-yl)-3,6-dihydropyridine-1(2H)-carboxylate], the “Cell viability (% of Con. 10 μM) HS746T” value in the series on HS746T cancer cells is reported as 6 % of Con. Besides, the IC50 in series [1] and in series [2] was 0.001 to 0.01 µM in each case.

Consider `CP(C)(=O)c1ccccc1Nc1nc(Nc2cnc3[nH]ncc3c2)ncc1Cl` [compound 82, (2-((2-((1H-Pyrazolo[3,4-b]pyridin-5-yl)amino)-5-chloropyrimidin-4-yl)amino)phenyl)dimethylphosphine oxide], for which the “Cell viability (% of Con. 10 μM) HS746T” value in the series on HS746T cancer cells is 18 % of Con. Further, the IC50 in series [1] and in series [2] was 0.01 to 0.1 µM each time.

As to `CP(C)(=O)c1ccccc1Nc1nc(Nc2ccc3[nH]nc(-c4cn[nH]c4)c3c2)ncc1Cl` [compound 84, (2-((2-((3-(1H-Pyrazol-4-yl)-1H-indazol-5-yl)amino)-5-chloropyrimidin-4-yl)amino)phenyl)dimethylphosphine oxide], the “Cell viability (% of Con. 10 μM) HS746T” value in the series with HS746T cancer cells is given as 11 % of Con. The IC50 in series [1] and in series [2] was 0.001 to 0.01 µM throughout.

As for `CC(C)S(=O)(=O)c1ccccc1Nc1nc(Nc2cc(C(F)(F)F)cc(C(F)(F)F)c2)ncc1Cl` [compound 5, N^2-(3,5-bis(trifluoromethyl)phenyl)-5-chloro-N^4-(2-(isopropylsulfonyl)phenyl)pyrimidine-2,4-diamine], the results for the IC50 in series [1] and in series [2] were 0.01 to 0.1 µM and 0.1 to 1 µM, respectively.

As to `CC(C)S(=O)(=O)c1ccccc1Nc1nc(Nc2cc(Cl)cc(Cl)c2)ncc1Cl` [compound 2, 5-Chloro-N^2-(3,5-dichlorophenyl)-N^4-(2-(isopropylsulfonyl)phenyl) pyrimidine-2,4-diamine], the IC50 in series [1] and in series [2] was 0.1 to 1 µM each time.

Regarding `CC(C)S(=O)(=O)c1ccccc1Nc1nc(Nc2cc(F)c(Br)c(F)c2)ncc1Cl` [compound 4, N^2-(4-Bromo-3,5-difluorophenyl)-5-chloro-N^4-(2-(isopropylsulfonyl)phenyl)pyrimidine-2,4-diamine], the results for the IC50 in series [1] and in series [2] were 0.1 to 1 µM and 0.01 to 0.1 µM, respectively.

Turning to `CP(C)(=O)c1ccccc1Nc1nc(Nc2ccc3[nH]nc(-c4cccnc4F)c3c2)ncc1Cl` [compound 83, (2-((5-Chloro-2-((3-(2-fluoropyridin-3-yl)-1H-indazol-5-yl)amino)pyrimidin-4-yl)amino)phenyl)dimethylphosphine oxide], the “Cell viability (% of Con. 10 μM) HS746T” value in the series with HS746T cancer cells is listed as 11 % of Con. Besides, the IC50 in series [1] and in series [2] was 0.001 to 0.01 µM each time.

For `Cn1ncc2cc(Nc3ncc(Cl)c(Nc4ccccc4P(C)(C)=O)n3)cnc21` [compound 78], the “Cell viability (% of Con. 10 μM) HS746T” value in the series with HS746T cancer cells is 17 % of Con. The IC50 in series [1] was in the range of 0.01 to 0.1 µM; in series [2], 0.001 to 0.01 µM.
